In patent publication US11123335B2, “Method for preventing lung diseases in smokers and non-smokers using antihypertensive drug” (SEOUL NATIONAL UNIVERSITY R & DB FOUNDATION, priority 2015, dated 2021):

How the values were obtained:
IGF-1R [1] = test: IGF-1R activation in lung tissue of NNK-treated mice; type: in vivo, mouse; settings: A/J mice, NNK 3 μmol
Method: (§1) Cells were washed twice with ice-cold PBS, and then lysed with a modified RIPA buffer [50 mM Tris-HCl (pH 7.4), 150 mM NaCl, 1 mM EDTA, 0.25% sodium deoxycholate, 1% Triton X-100, a protease inhibitor cocktail, 100 mM NaF, 1 mM Na3VO4]. Lysates were centrifuged at 13,000 rpm for 15 to 20 minutes to harvest supernatants, and then the collected proteins were quantified using the BCA method. Equivalent amounts of the proteins were subjected to electrophoresis using 8-15% SDS-PAGE, and then transferred to a PVDF membrane. The membrane was washed with TBST (0.01% Tween-20-containing Tris-buffered saline), and blocked in a blocking buffer (diluted in TBST to contain 5% skim milk) at room temperature for 1 hour. The membrane was incubated with primary antibodies diluted in 3% BSA-containing TBST at 4° C. for 12 hours, and washed with TBST for over 1 hour. The membrane was incubated with secondary antibodies diluted in TBST containing 3% skim milk at room temperature for 1 to 2 hours, and washed with TBST for over 1 hour. The membrane was reacted in an ECL solution, and band visualization was carried out by exposure to an X-ray film.

IGF2 [2] = test: IGF1 and IGF2 generation in lung epithelial cells (RT-PCR); type: cell-based, human; settings: NNK 1 or 10 μM
Method: RNA was isolated from lung epithelial cells by the following method. By adding TRIzol Reagent, the cells were homogenized, treated with chloroform and then centrifuged at 13,000 rpm for 20 minutes. After collection of supernatants, equivalent amounts of isopropanol were added, and then the resulting mixture was centrifuged at 13,000 rpm for 20 minutes to precipitate RNA. The precipitated RNA was washed with 75% ethanol, dried and then dissolved in nuclease-free water. The absorbance at 260 nm was measured, and then the RNA was quantified. RNA having a ratio of A260/A280 nm of 1.8 to 2.0 was used in the experiments. All of the experiments were carried out under RNase-free conditions.
cDNA was synthesized using the PrimeScript™ 1st strand cDNA Synthesis Kit by reacting 2 μg of total RNA with Oligo dT primer (50 μM), a dNTP mixture, and RNase-free dH2O at 65° C. for 5 minutes, reacting a Template RNA primer mixture with 5× PrimeScript Buffer, an RNase inhibitor, PrimeScript RTase, and RNase-free dH2O at 42° C. for 1 hour, and performing heating at 95° C. for 5 minutes to stop the reaction.
After a reaction solution was adjusted to a final volume of 20 μl by adding 2 μl cDNA, 4 μM primer sets, 10 μl EconoTaq® polymerase, and distilled water, polymerase chain reaction (PCR) was carried out using a PCR instrument. […]

IGF-1R [3] = test: NNK-induced IGF-1R activation in lung epithelial / lung cancer cells (Western blot); type: cell-based, human
Method: as §1

IGF2 [4] = test: IGF2 secretion in GFP-IGF2-overexpressing BEAS-2B cells; type: cell-based, human; settings: GFP-IGF2-overexpressing BEAS-2B, NNK treatment
angiotensinogen (AGT) = test: AGT expression or secretion in lung epithelial cells; type: cell-based, human
Method: as §1

intracellular Ca^2+ = test: Intracellular Ca2+ production (Fluo-4 AM); type: cell-based, human; settings: NNK treatment
Method: Lung epithelial cells were placed on coverslips, treated with an antihypertensive drug or a Ca^2+ chelator, treated with Ca^2+ indicator Fluo-4 AM at 37° C. for 15 minutes, and then treated with NE for 5 minutes. The cells were washed with PBS three times. The slides were mounted with a mounting medium, and images were captured using a Nuance multispectral imaging system (PerkinElmer).
For real-time monitoring of a Ca^2+ change in cells by NNK, the cells were seeded into 96-well cell carrier microplates (PerkinElmer), treated with an antihypertensive drug, treated with Fluo-4 AM at 37° C. for 15 minutes, and then treated with NNK. Fluorescence changes were monitored using an Operetta high content screening system, and result analysis was performed using Harmony software (PerkinElmer).

IGF-1R [5] = test: NNK-induced IGF-1R phosphorylation in IGF-1R or IR-overexpressing fibroblasts (immunoprecipitation); type: cell-based; settings: NNK 10 μM, time-dependent
Method: Proteins isolated from cells were incubated with an antibody and protein A/G agarose to isolate a protein binding to the corresponding antibody. The presence of other proteins capable of interacting with a specific protein was determined by Western blot analysis.
as §1

IGF-1R [6] = test: Angiotensin-induced activation of IGF-1R signaling in BEAS-2B; type: cell-based, human; settings: angiotensin stimulation
Method: as §1

IGF2 [7] = test: NE-mediated IGF2 secretion in lung epithelial cells; type: cell-based, human
Method: ELISA for IGF1, IGF2 and NE were performed using commercially available ELISA kits (R&D Systems, DSL or Abnova) according to the manufacturer's instruction.

IGF-1R [8] = test: NE-mediated IGF-1R activation in lung epithelial cells; type: cell-based, human
Method: as §1

mice = test: NE (stress hormone) lung carcinogenesis model with urethane; type: in vivo, mouse; settings: continuous NE exposure by micro-osmotic pump, 12 weeks, urethane 1 g/kg
Method: To identify the carcinogenesis promotion by a stress hormone NE, NE (50.1 mM) or vehicle PBS was injected into micro-osmotic pumps (Alzet), and then the pumps were implanted into the backs of mice. Six weeks later, the existing pumps were removed, NE or PBS-injected new pumps were implanted into the mice, and then the mice were continuously exposed (daily exposure at a dose of 1 μmol per 100 g mouse) to NE for a total of 12 weeks. To stimulate tumorigenesis, three days after the pump implantation, urethane was administered at a dose of 1 g/kg.
For non-invasive observation of tumors before autopsy, MMPSense 680 probes were injected, and images were obtained using IVIS Spectrum microCT (PerkinElmer). After autopsy of the mice, lungs were extracted, and produced tumors were counted and embedded in paraffin to form paraffin blocks. Four or more tissue sections were prepared at regular intervals and stained by H&E staining, and then numbers and sizes of the tumors were measured to calculate volumes of the tumors. The tumor volume was calculated according to (minor axis)^2×major axis×0.5.

lung epithelial cells = test: Transformation of lung epithelial cells by stress hormones; type: cell-based, human; settings: treatment with the stress hormone alone
Method: Cells (2-3×10^3 cells) were seeded into 96-well plates, treated with a test drug diluted with a medium, and then incubated for 3 days. After incubation, the cells were treated with an MTT solution to have a final concentration of 200-500 μg/ml and incubated for 2 to 4 hours. After discarding the medium, produced formazan was dissolved in DMSO, and then the absorbance at 570 nm was measured. Alternatively, cells were seeded into 12- or 24-well plates, collected after a predetermined time after treatment with a test drug, and then counted using a hemocytometer. 100 to 300 cells were seeded into 6- or 12-well plates and then treated with NNK or NNK and a test drug for 2 to 3 weeks. After 2 to 3 weeks, Colony formation was observed and the colonies were counted after stained staining with crystal violet. Before the experiment, low-melting agar (final concentration of agar: 1%) was diluted with a medium, and then 1 ml of the resulting solution was added and solidified in each 24-well plate, resulting in bottom agar. 2,000 to 5,000 cells were mixed with the low melting agar (final concentration of agar: 0.35-0.4%), 500 μl of the resulting mixture was added onto each bottom agar. After solidification of the agar, the cells were treated with NNK or a test drug, which was diluted with a medium. After 2 to 4 weeks after treatment, colonies were stained with an MTT solution, observed, and then counted. Lung epithelial cells at 90 to 95% confluency were treated with a carcinogen diluted with a growth factor-free medium, or a carcinogen and a test drug. After 2 to 3 weeks, foci formation was observed.

FVB mouse = test: Emphysema-induced mouse model (NNK/B[a]P); type: in vivo; settings: FVB mice, amlodipine 0.8 mg/kg oral 6 times a week, 5 months
Method: Cells were plated onto coverslips, pretreated with a drug and then treated with NNK or NE. OCT blocks were sliced to have a thickness of 4 μm and then placed onto silane-coated slides. Cells or tissue was washed with PBS, and fixed with 4% paraformaldehyde at room temperature for 30 minutes. Afterward, the cells were permeabilized with 0.1% Triton X-100, and blocked in a blocking solution. After treatment with primary antibodies at 4° C. for over 12 hours, the cells were washed with PBS several times, and then treated with fluorescence-binding secondary antibodies. Subsequently, after washing with PBS several times, the slides were mounted with a DAPI-containing mounting solution, and images were captured using a confocal microscope.
Paraffin blocks were sliced to have a thickness of 4 μm, placed onto silane-coated slides, and then dried. […]
As a method for detecting the activation degree of a protease, a matrix metalloproteinase (MMP), known as the main factor causing COPD in lung tissue, a proper amount of a reaction buffer containing fluorescein isothiocyanate (FITC)-coupled DQ gelatin was added to a slide, and reacted at 37° C. in a dark room for 12 hours. The activated MMP decomposed the DQ gelatin, resulting in fluorescence from FITC which had been inhibited, and thus the fluorescence intensity of FITC was directly proportional to MMP activity. […]

[9] = NE-treated lung epithelial cells

Which results are given for `CN(CCCC(=O)c1cccnc1)N=O` [NNK, 4-(methylnitrosamino)-1-(3-pyridyl)-1-butanone]?
activation of IGF-1R and its downstream signaling IRS in lung tissue (IGF-1R [1]): increased; IGF2 generation (IGF2 [2]): increased; activation of IGF-1R and its downstream signaling mediators Akt, mTOR, ERK (IGF-1R [3]; NHBE, SAEC, HBE/p53i, HB56B, BEAS-2B, increasing NNK time or concentration): increased; IGF-1R activation in lung cancer cells (IGF-1R [3]; various lung cancer cells with different genotypes, NNK 10 μM): activated; IGF2 secretion (IGF2 [4]): increased; AGT promoter activation (angiotensinogen (AGT); NNK treatment): activated; AGT expression and secretion (angiotensinogen (AGT); increase in NNK treatment time and concentration): increased; AGT expression (angiotensinogen (AGT); lung epithelial cells treated with NNK for 120 days): increased; intracellular Ca^2+ (intracellular Ca^2+): increased; specificity of increase in IGF-1R phosphorylation (IGF-1R vs IR) (IGF-1R [5]): specifically shown for IGF-1R, not for IR

With “angiotensin (DRVYIHPF; Angiotensin-2; UniProt P01019 25-32, looked up) [angiotensin used to stimulate BEAS-2B lung epithelial cells]” as the molecule, how does the “activation of IGF-1R and downstream signaling mediators Akt and ERK” value (IGF-1R [6]) read?
Its value is “concentration- and time-dependently activated”.

How did the IGF2 secretion (IGF2 [7]; lung epithelial cells treated with NE) turn out when `NC[C@H](O)c1ccc(O)c(O)c1` [NE, norepinephrine] was run?
The IGF2 secretion was “increased”.

What about the IGF-1R phosphorylation (IGF-1R [8]; BEAS-2B, HBE/p53i, NHBE, HB56B, NE time- or concentration-dependent) of the same molecule?
Its IGF-1R phosphorylation is “increased”.

What about the urethane-initiated lung carcinogenesis (mice) of the same molecule?
The urethane-initiated lung carcinogenesis was “significantly increased”.

And the “transformation of lung epithelial cells (viability, colony formation, foci formation)” value (lung epithelial cells)?
The value was “significantly enhanced”.

Which results are given for amlodipine?
NE-mediated IGF2 secretion (IGF2 [7]; [9]): inhibited; NE-mediated IGF-1R activation (IGF-1R [8]; [9]): inhibited; lung tissue collapse (morphology, H&E) (FVB mouse): inhibited
